Earlier results in patent US20240139272A1, “USE OF A SPEARMINT EXTRACT FOR RETINA NEUROTROPHISM” (KEMIN INDUSTRIES, INC., priority 2022, published 2024).
Where two headings read alike, the source gives them in different places.

Tested on: male Wistar rats
Settings: for carrageenan-induced increase in paw volume (FIG. 1): 3 and 6 hours, spearmint extract at all doses, RA at the high dose (50 mg/kg), indomethacin 10 mg/kg

## COc1ccc2c(c1)c(CC(=O)O)c(C)n2C(=O)c1ccc(Cl)cc1 [Indomethacin]
10 mg/kg intraperitoneal, 3 hours post-injection of carrageenan
  paw volume increase compared to baseline: 6%
10 mg/kg intraperitoneal, 6 hours post-injection of carrageenan
  paw volume increase compared to baseline: 3%
  carrageenan-induced increase in paw volume (FIG. 1): substantially attenuated

## O=C(/C=C/c1ccc(O)c(O)c1)O[C@H](Cc1ccc(O)c(O)c1)C(=O)O [rosmarinic acid]
15 mg/kg intraperitoneal, 3 hours
  paw volume increase compared to baseline: 20%
15 mg/kg intraperitoneal, 6 hours
  paw volume increase compared to baseline: 10%
50 mg/kg intraperitoneal, 3 hours
  paw volume increase compared to baseline: 7%
50 mg/kg intraperitoneal, 6 hours
  paw volume increase compared to baseline: 5%
  carrageenan-induced increase in paw volume (FIG. 1): substantially attenuated
